Measurements from patent publication US20230320995A1, “IONIZABLE CATIONIC LIPIDS AND LIPID NANOPARTICLES” (CAPSTAN THERAPEUTICS, INC., priority 2022, published 2023).
Where two headings read alike, the source gives them in different places.

How the values were obtained:
[1] = ex vivo stability in mouse plasma; assay type: in vitro ADME; conditions: CD-1 mouse plasma, 37° C., 1 μM lipid
Procedure: To determine the stability of the disclosed lipids in mouse plasma lipid stock solution was prepared by dissolution of the lipid in isopropanol at the concentration of 5 mg/mL. A requisite volume of the lipid-isopropanol solution was then diluted to 100 μM concentration at a total volume of 10.0 mL with 50:50 (v/v) ethanol/water. Ten microliters of this 100 μM solution was spiked into 10.0 mL of mouse plasma (BioIVT, Lot MSE394920, CD-1 mouse, anticoagulant: sodium heparin, not filtered) that was prewarmed to 37° C. and stirred at 50 rpm with a magnetic stir bar. The starting concentration of lipids in plasma was thus 1 μM. Aliquots (50 μL) were taken after 0, 15, 30, 45, 60, and 120 minutes, transferred to microcentrifuge tubes and quenched with three volumes (150 μL) of ice cold acetonitrile/methanol (4:1). Positive control incubations utilized the same plasma, with Benfluorex (1 μM) as the substrate with Labetalol (1.0 μgl) as the in situ disappearance. The quenched solutions were vortexed, centrifuged for 5 minutes at 13,000 rpm, and supernatant (100 μL) transferred to a 96-well plate and diluted with water (200 μL, 0.1% FA). After filtration through a 0.45 μm 96-well filtering plate, the filtrates were analyzed by LC-MS (Waters AQUITY I-class UPLC system, ThermoScientific Vanquish UPLC system consisting of a binary pump, autosampler, and column compartment, Waters Xevo G2-XS QT of mass spectrometer; Phenomenex F5, 1.7 μm, 2.1×50 mm column). Mobile phase A was 0.1% formic acid in water, and mobile phase B was 0.1% formic acid in acetonitrile. The flow rate was 0.6 mL/min. Elution gradient was as follows: time, 0.5 min: 20% B; 0.5-2 min: 20-100% B; 2-4.8 min: 100% B; 4.8-5.45 min: 100-20% B. Mass spectrometry was in positive scanning mode from 600-1100 m/z. The peak of the molecular ion of the lipids was integrated in extracted ion chromatography (XIC) using Xcalibur software (Thermo Fisher). The relative peak area compared to T=0, after normalization by the peak area of the internal standard, was used as the percentage of the lipid remaining at each time point. T1/2 values were calculated using the first-order decay model.

[2] = physical-chemical properties of CD5-targeted tLNP encapsulating mCherry mRNA; assay type: physicochemical; conditions: for Hydrodynamic diameter: anti-CD5 tLNP: ionizable lipid/DSPC/cholesterol/DMG-PEG 2000/DSPE-PEG2000-Maleimide 50:10:38.5:1.4:0.1; for Hydrodynamic diameter / PDI (polydispersity index): DLS; for PDI (polydispersity index) / Encapsulation Efficiency: anti-CD5 tLNP; for Encapsulation Efficiency: RiboGreen assay
Text: CleanCap® mCherry 5-methoxyuridine (5moU) mRNA (L-7203) was purchased from TriLink. mRNA was encapsulated in LNP using a self-assembly process in which an aqueous solution of mRNA at pH=3.5 is rapidly mixed with a solution of lipids dissolved in ethanol, then followed by stepwise phosphate and Tris buffer dilution and TFF purification. LNP composition in this study was: ionizable cationic lipid/distearoylphosphatidylcholine/cholesterol/DMG-PEG 2000/distearoylphosphatidyl ethanolamine(DSPE)-PEG2000-Maleimide (50:10:38.5:1.4:0.1 mol/mol) and were encapsulated at an N/P ratio (the ratio of positively-chargeable […] amine (N=nitrogen) groups to negatively-charged nucleic acid phosphate (P) groups) at 6. The hydrodynamic diameter of the nanoparticles was measured by dynamic light scattering using a Zetasizer Nano ZS (Malvern Instruments Ltd., Malvern, UK) instrument.
Next, an anti-CD5 mAb was conjugated to the above LNP to generate tLNP. Purified rat anti-mouse CD5 antibody, clone 53-7.3 (BioLegend), was coupled to LNP via N-succinimidyl S-acetylthioacetate (SATA)-maleimide conjugation chemistry. Briefly, LNPs with DSPE-PEG(2000)-maleimide incorporated were formulated and stored at 4° C. on the day of conjugation. The antibody was modified with SATA (Sigma-Aldrich) to introduce sulfhydryl groups at accessible lysine residues allowing conjugation to maleimide. SATA was deprotected using 0.5 M hydroxylamine followed by removal of the unreacted components by G-25 Sephadex Quick Spin Protein columns (Roche Applied Science, Indianapolis, IN). The reactive sulfhydryl group on the antibody was then conjugated to maleimide moieties on the LNPs using thioether conjugation chemistry. Purification was performed using Sepharose CL-4B gel filtration columns (Sigma-Aldrich). tLNPs (LNPs conjugated with a targeting antibody) were frozen at −80° C. Others have conjugated antibody to free functionalized PEG-lipid and then incorporated the conjugated lipid into pre-formed LNP.
mRNA content was determined using a Quant-iT™ RiboGreen RNA assay kit (Invitrogen™). Encapsulation efficiency was calculated by determining the unencapsulated mRNA content by measuring the fluorescence intensity (Fi) upon the addition of RiboGreen reagent to the LNP and comparing this value to the total fluorescence intensity (Ft) of the RNA content that is obtained upon lysis of the LNPs by 1% Triton X-100, where % encapsulation=(Ft−Fi)/Ft x 100).
The particle size (hydrodynamic diameter) and polydispersity index of the targeted lipid nanoparticles were determined using dynamic light scattering (DLS) on a Malvern Zetasizer Nano ZS (Malvern Instruments, Worcestershire, UK). Size measurement was carried out in pH 7.4 Tris buffer at 25° C. in relevant disposable capillary cells. A non-invasive back scatter system (NIBS) with a scattering angle of 173° was used for size measurements.

[3] = apparent pKa of ionizable lipid in lipid nanoparticle, TNS assay; assay type: physicochemical; conditions: for ΔpKa: difference of calculated and measured pKa; for pKa: TNS assay
Procedure: c Log D and c-pKa were calculated as noted above. The measured pKa of a lipid was determined as formulated in a lipid nanoparticle using the TNS assay as described in the following Example.
The apparent pKa of ionizable lipid in the lipid nanoparticle was determined using 6-(p-toluidino)-2-naphthalenesulfonic acid sodium salt (TNS salt, Toronto Research Chemicals, Toronto, ON, Canada). Lipid nanoparticles were diluted in 1×Dulbecco's PBS to a concentration of 1 mM total lipids. TNS salt was prepared as a 1 mg/mL stock solution in DMSO and then further diluted using distilled water to a working solution of 60 μg/mL ([…]). Diluted lipid nanoparticle samples were further diluted to 90 μM total lipids in 165 μL of buffered solution containing 10 mM HEPES, 10 mM MES, 10 mM ammonium acetate, 130 mM NaCl, and final TNS concentration of 1.33 μg/mL (4 μM) with the pH ranging from 3.5 to 12.2. Following pipette mixing and incubation at room temperature in the dark for 15 min, fluorescence intensity was measured at room temperature in a BioTek Synergy H1 plate reader using excitation and emission wavelengths of 321 and 445 nm, respectively. The fluorescence signal was blank subtracted and plotted as a function of the pH, then analyzed using a nonlinear (Boltzmann) regression analysis with the apparent pKa determined as the pH giving rise to half maximal fluorescence intensity as calculated by the Henderson-Hasselbalch equation.

[4] = physical-chemical properties of LNP encapsulating mCherry mRNA; assay type: physicochemical; conditions: for Encapapsulation Efficiency / PDI (polydispersity index): LNP 50:10:38.5:1.5, mCherry mRNA; for Encapapsulation Efficiency / Hydrodynamic diameter: N/P 6; for PDI (polydispersity index) / Hydrodynamic diameter: DLS; for Hydrodynamic diameter: LNP: ionizable lipid/DSPC/cholesterol/DMG-PEG2000 50:10:38.5:1.5, mCherry mRNA, pH 7.4 Tris, 25° C.
Text: The mRNA was encapsulated in LNP using a self-assembly process in which an aqueous solution of mRNA at pH=3.5 is rapidly mixed with a solution of lipids dissolved in ethanol, then followed by stepwise phosphate and Tris buffer dilution and tangential flow filtration (TFF) purification. LNP composition in this study was: ionizable cationic lipid/distearoylphosphatidylcholine/cholesterol/DMG-PEG2000 (50:10:38.5:1.5 mol/mol) and were encapsulated at an N/P ratio (the ratio of positively-chargeable lipid amine (N=nitrogen) groups to negatively-charged nucleic acid phosphate (P) groups) at 6. LNPs were frozen at −80° C. […] The diameter of the nanoparticles was measured by dynamic light scattering using a Zetasizer Nano ZS (Malvern Instruments Ltd., Malvern, UK) instrument. Size measurement was carried out in pH 7.4 Tris buffer at 25° C. in relevant disposable capillary cells. A non-invasive back scatter system (NIBS) with a scattering angle of 173° was used for size measurements.

[5] = ionizable lipid in tLNP, read-out: Measured pKa
[6] = measured, lipid formulated in a lipid nanoparticle, read-out: pKa

ex vivo Mouse Plasm Stability % Remaining at 2 Hours [1] [%]	Hydrodynamic diameter [2] [nm]	PDI (polydispersity index) [2]	Encapsulation Efficiency [2] [%]	ΔpKa [3]	pKa [3, 5]	pKa [3, 6]	Encapapsulation Efficiency [4] [%]	PDI (polydispersity index) [4]	Hydrodynamic diameter [4] [nm]	SMILES
64	100	0.10	99	0.80	7.51	7.51	99		101	CCCCCCCCC(=O)OCC(COC(=O)CCCCCCCC)CC(=O)OCCN(CCOC(=O)CC(COC(=O)CCCCCCCC)COC(=O)CCCCCCCC)C(=O)NCCN(C)C [Compound A-13]
61	100	0.05	95	0.91	7.46	7.46	91	0.03	127	CCCCCCCCC(=O)OCC(COC(=O)CCCCCCCC)CC(=O)OCCN(CCOC(=O)CC(COC(=O)CCCCCCCC)COC(=O)CCCCCCCC)C(=O)N(C)CCN(C)C [Compound A-14]
69	136	0.15	98	1.18	8.37	8.37	99	0.07	97	CCCCCCCCC(=O)OCC(COC(=O)CCCCCCCC)CC(=O)OCCN(CCOC(=O)CC(COC(=O)CCCCCCCC)COC(=O)CCCCCCCC)C(=O)N(C)CCCN(C)C [Compound A-15]

SMILES	ex vivo Mouse Plasm Stability % Remaining at 2 Hours [1] [%]	Hydrodynamic diameter [2] [nm]	PDI (polydispersity index) [2]	Encapsulation Efficiency [2] [%]	ΔpKa [3]	pKa [3, 5]	pKa [3, 6]	Encapapsulation Efficiency [4] [%]	PDI (polydispersity index) [4]	Hydrodynamic diameter [4] [nm]
CCCCCCCCC(=O)OCC(COC(=O)CCCCCCCC)CC(=O)OCCN(CCOC(=O)CC(COC(=O)CCCCCCCC)COC(=O)CCCCCCCC)C(=O)OCCCN(C)C [Compound A-12]	85	98	0.07	92	1.91	7.35	7.35	91	0.04	104
